Test: Human HepG2 cell viability assay in 384 well format
Assay type: toxicity, cell-based
Parameters: dose 125 nL, time 70.5 hour; cytotoxicity at 70.5 h: concentration not given beside the values
Conditions: HepG2 cells, read-out: Inhibition

SMILES	cytotoxicity at 70.5 h [%]
COCCn1c(-c2cccc(OC)c2)cnc1NC(=O)NC(C)C	-2.89
CCOc1ccc(C(=O)Nc2c(C)nc3ccccn3c2=O)cc1	19.8
CCOc1ccc(C(=O)Nc2c(C)nc3cccc(C)n3c2=O)cc1	-19.3
COc1cnc(CSc2nnc(C)s2)cc1OCC(=O)NC(C)(C)C	-7.68
Cc1ccc2oc(SCC(N)=O)nc2n1	-21.9
Cc1n[nH]c2c1C(c1cc(F)cc(F)c1)SCC(=O)N2 (centres undefined)	17.9
COc1ccc(C2CCCN2C(=O)c2cc(C(C)C)on2)cc1 (centres undefined)	-9.05
COc1cccc(CN2CCCC2c2cccc(F)c2)c1OC (centres undefined)	-11.8
COc1cc(NC(=O)N2CCCC2c2ccco2)cc(OC)c1 (centres undefined)	-8.23
Cc1[nH]c2nc(CNc3ccccc3Cl)nn2c(=O)c1C	-10.8
Cc1ccc(Cl)cc1NCc1nc2[nH]c(C)c(C)c(=O)n2n1	-0.0581
Cc1ccc(Cl)cc1NC(=O)Nc1c[nH]c(=O)[nH]c1=O	0.569
Cc1ccc(NC(=O)Nc2c[nH]c(=O)[nH]c2=O)c(C)c1	11.8
CCc1nnc(SCc2cc(=O)n3c4c(sc3n2)CCCC4)[nH]1	-1.82
Nc1nnc(SCc2cc(=O)n3c4c(sc3n2)CCCC4)[nH]1	-3.97
Cc1n[nH]c(C)c1CC(=O)NCCc1ccccc1	14.3
CSc1ccc(CCNC(=O)Cc2c(C)n[nH]c2C)cc1	-7.74
CSc1ccc(CNC(=O)Cc2c(C)n[nH]c2C)cc1	-6.16
CCc1ccc(NC(=O)c2cnc(N3CCCC3)nc2C)cc1	-2.19
Cc1nc(N2CCCC2)ncc1C(=O)Nc1ccc(Br)cc1	-2.71
Cc1nc(-c2ccc(S(=O)(=O)N3CCC4(CC3)OCCO4)cc2)co1	-7.29
Cc1nc(-c2ccc(S(=O)(=O)N3CCOCC3)cc2)co1	-6.53

SMILES	cytotoxicity at 70.5 h [%]
CCn1nc(C)c2ccn(CC(=O)NCCCOC)c(=O)c21	-6.99
Cc1nn(C)c2c(=O)n(CC(=O)NCc3ccccc3Cl)ccc12	8.11
Cc1nn(C)c2c(=O)n(CC(=O)NCC3CCCO3)ccc12 (centres undefined)	-4.99
COc1ccc(NC(=O)C(c2ccc(OC)cc2)N2CCOCC2)cc1 (centres undefined)	0.848
CC1=C(c2ccc(Cl)cc2)S(=O)(=O)N=C1N1CCc2ccccc21	-2.07
CC1=C(c2ccc(C(C)C)cc2)S(=O)(=O)N=C1N1CCc2ccccc21	33.6
CCOc1nc2cnccc2n(CC(=O)NCc2ccc(C)cc2)c1=O	-9.89
CN(C)c1ccc(C(CNS(=O)(=O)c2cccs2)N2CCCC2)cc1 (centres undefined)	-2.5
COc1ccc(C2OC(COc3ccc(C)cc3)=NN2C(C)=O)cc1 (centres undefined)	0.8
COc1ccc(NC(=O)c2nc3ccccc3n(C)c2=O)c(OC)c1	-0.905
Cc1cccc(C2CCCCCN2Cc2cn(C)nc2C)c1 (centres undefined)	-9.15
Cc1ccsc1C1CCCCCN1Cc1cn(C)nc1C (centres undefined)	-13.5
COc1cccc(CN2CCCCCC2c2cccs2)c1OC (centres undefined)	-10.1
CCS(=O)(=O)N1CCc2ccc(NC(=O)NC3CCCCC3)cc21	-7.09
CCS(=O)(=O)N1CCc2ccc(NC(=O)NCCc3ccccc3)cc21	-6.1
COC(=O)c1cccc(C(=O)N2CCN(c3cc(C)ccc3C)CC2)n1	0.723
COC(=O)c1cccc(C(=O)N2CCN(c3cc(Cl)ccc3C)CC2)n1	-2.22
CCn1nc(C)c2ccn(CC(=O)NCC3CCCO3)c(=O)c21 (centres undefined)	-5.94
CCn1nc(C)c2ccn(CC(=O)NCCN3CCCCC3)c(=O)c21	-5.13
COCc1cnc2n1CCN(S(=O)(=O)c1c(C)nn(C)c1C)C2C (centres undefined)	29
CC1c2ncc(COCC3CC3)n2CCN1S(=O)(=O)N(C)C (centres undefined)	-1.15
O=C(C1CCCO1)N1CCc2nnc(Cn3cccc3)n2CC1 (centres undefined)	-7.61

SMILES	cytotoxicity at 70.5 h [%]
CC(C)Nc1nc2c(c(NC3CC3)n1)CCN(C1CCOCC1)CC2	-3.76
COC(=O)CCC(=O)N1CCc2nc(C(=O)N3CCOCC3)sc2CC1	1.24
CCO[C@@H]1CC[C@H]2[C@H]1OCCN2C(=O)c1ccc(OC)c(F)c1	-4.73
CC(=O)N1CCOCC2(C1)CN(S(C)(=O)=O)CCO2 (centres undefined)	-9.18
COc1cc(C(=O)N2CCO[C@H]3[C@H](OCC4CC4)CC[C@@H]32)ccc1F	-5.96
CCn1cc2c(n1)C(COCC1CC1)CN(C(=O)c1ccco1)C2 (centres undefined)	-10.5
CCOCC1CN(C(=O)c2cnoc2C)Cc2cn(CC3CC3)nc21 (centres undefined)	-8.9
COC(=O)CCC(=O)N1CCc2nc(C(=O)N(C)C)sc2CC1	-10.1
CC(C)N1CCc2ncn(C(C)C)c2C1C(=O)N1CCN(C)CC1 (centres undefined)	6.34
CCOCC1COCCC12CCN(C(=O)C1=CCCC1)CC2 (centres undefined)	-5.05
COCC1COCCC12CCN(C(=O)CC1=CCCCC1)CC2 (centres undefined)	-2.79
CCS(=O)(=O)N1C[C@H]2CN(c3cnn(C)c3)C(=O)[C@H]2C1	-5.61
CN(C)C(=O)[C@H]1C[C@@H]2CN(C(=O)NCC3CCCCC3)C[C@H]1O2	-0.82
O=C(NCC1CCCCC1)N1C[C@H]2C[C@H](C(=O)N3CCCC3)[C@@H](C1)O2	-1.84
CC(=O)NCC(=O)N1CCc2c(CN(C)C)nn(C(C)C)c2C1	-2.84
N#Cc1ccc2c(c1)CN(C(=O)c1nc[nH]n1)C2c1cnco1 (centres undefined)	-2.48
CC1NC(=O)COC12CCN(C(=O)Cc1ccsc1)CC2 (centres undefined)	4.29
CN1C[C@H](COCC2CC2)[C@H]2CCN(Cc3ccco3)CC[C@H]2C1=O	7.68
Cn1cc(N2C[C@@H]3CN(S(=O)(=O)C4CC4)C[C@@H]3C2=O)cn1	2.74
Cc1ncnc2c1CCN(C(=O)Cc1cccc(F)c1)CC2	0.979
CC(C)n1c(C(=O)N2CCCC2)nc2c1CCN(c1ncccn1)C2	0.473
COc1ncnc2c1CCN(C(=O)NCc1cccc(F)c1)CC2	-6.04

SMILES	cytotoxicity at 70.5 h [%]
CCOCC1COCCC12CCN(C(=O)CC1=CCCCC1)CC2 (centres undefined)	-5.12
CC1N(C)C(=O)COC12CCN(C(=O)Cc1ccsc1)CC2 (centres undefined)	-5.66
O=C(C1CC1)N1CCC2(CC1)CNCc1ccccc12	18.9
CN1C(=O)C2(CCN(S(=O)(=O)C3CC3)CC2)c2ccccc21	-2.07
c1cnc(N2C[C@H](OCC3CCOCC3)[C@H]3COC[C@H]32)nc1	-1.34
COc1ccc(-c2cnc3n2CCNC32CCN(S(C)(=O)=O)CC2)cc1	-6.19
Cc1ccc(CNC(=O)c2nc3c(o2)CN(c2ncccn2)C3)o1	-2.56
CC(C)N(C)[C@@H]1CCN(Cc2ccoc2)[C@H]1Cc1ccccc1	-1.21
CN1CCN(CCO)C(=O)C12CCN(c1nccs1)CC2	-2.35
CS(=O)(=O)N1CCn2c(C(=O)N3CCOCC3)cnc2C1	-0.596
CNC(=O)[C@@H]1CC[C@@H]2[C@@H](CCN2C(=O)N(C)C)O1	-0.00257
CS(=O)(=O)N1CC[C@H]2O[C@H](C(=O)NCc3cccnc3)CC[C@H]21	0.629
CCCS(=O)(=O)N1CCC2(CC(C(=O)NCc3cccnc3)=NO2)C1 (centres undefined)	-10.3
CN(C)C(=O)N1CCC2(CC1)NC(=O)c1ccccc12	-2.99
CS(=O)(=O)N1C[C@H](C(=O)Nc2cccnc2)C[C@H]2OCC[C@H]21	6.21
O=C([C@H]1COC[C@H]2CN(CC3CCCC3)C[C@H]21)N1CCOCC1	2.13
CCOCC1CN(C(=O)c2cnoc2C)Cc2cn(C)nc21 (centres undefined)	-5.33
CN(C)Cc1nn(C)c2c1CCN(C(=O)CC1CC1)C2	39.3
O=S(=O)(NC1CCC12CCN(CC1CC1)CC2)c1ccccc1 (centres undefined)	11.7
O=C(NC1CC1)N1CC[C@H]2[C@H]1CCN2c1nncs1	6.09
O=C(C1CCOCC1)N1CC[C@H]2[C@H]1CCN2c1nncs1	-0.658
CC(C)n1nc(CN(C)C)c2c1CN(C(=O)CC1CC1)CC2	-4.55

SMILES	cytotoxicity at 70.5 h [%]
O=S(=O)(NC1CCC12CCN(CC1CCOCC1)CC2)c1ccccc1 (centres undefined)	-2.17
CC(C)CN1CCN(C)C2(CCN(c3nccs3)CC2)C1=O	33.2
O=C(NC1CC2(CCN(CCO)CC2)c2ccccc21)c1ccno1 (centres undefined)	17.6
CN1CC2(CCN(S(=O)(=O)C3CC3)CC2)c2ccccc21	11
CCOCC1CN(C(=O)COc2ccccc2C)Cc2ncn(C)c21 (centres undefined)	-4.87
CCOCC(=O)N1Cc2[nH]nc(COCC3CC3)c2C1	0.817
CC(C)C(=O)N1CCCC2(CC(C(=O)NCc3cccnc3)=NO2)C1 (centres undefined)	-2.66
O=C([C@@H]1CC[C@@H]2[C@@H](CCN2Cc2cccs2)O1)N1CCCCO1	-7.83
Cn1cccc1CN1CCC2(CC1)CC(Oc1cccnc1)C2	6.62
COc1cc(N2C[C@H]3CCN(CCN4CCCC4)C[C@H]3C2)ncn1	-1.14
Cc1cccc(CN2CCC3(CC2)CC(Oc2cccnc2)C3)n1	-0.691
c1ccc(CO[C@@H]2C[C@H]3CN(c4ncccn4)CCN3C2)cc1	5.2
Cc1cnc(N2CCN3C[C@H](OCc4ccccn4)C[C@H]3C2)nc1	-2.63
CC(C)n1nc(CN(C)C)c2c1CN(CC1CC1)CC2	2.39
COCCN1CCO[C@@H]2CN(Cc3ccc(C)o3)C[C@@H]2C1	1.59
c1cncc(CN2CCOC(c3ncn4c(C5CC5)cccc34)C2)c1 (centres undefined)	-3.57
Cn1cncc1CNC1CC2(CCN(CC3CC3)CC2)c2ccccc21 (centres undefined)	-2.23
c1cc(C2CC2)n2cnc(C3CN(Cc4ccncc4)CCO3)c2c1 (centres undefined)	-1.44
CS(=O)(=O)N1CCC2(CC1)NCCn1c(-c3ccccc3)cnc12	-7.68
COCCN1CC[C@]2(CN(Cc3ccccn3)C[C@H]2C)C1=O	1.87
CN(C)CCn1c2c(ccc1=O)CC(NCc1cccnc1)CC2 (centres undefined)	-0.247
